The source made the active and inactive calls. The rule behind the calls is not given here.
Columns and labels:
[1] = target: T1, Prostaglandin G/H synthase 1 (Homo sapiens, UniProt P23219); assay: Inhibition of COX-1 in human THP1 cells assessed as inhibition of arachidonic acid-induced TXB2 formation at 100 uM incubated for 30 mins prior to arachidonic acid challenge measured after 30 mins by radioimmunoassay relative to vehicle-treated control; format: cell-based; settings: THP-1
[2] = target: T1, Prostaglandin G/H synthase 1; assay: Reversible inhibition of COX-1 in human THP1 cells assessed as inhibition of arachidonic acid-induced TXB2 formation at 100 uM incubated for 30 mins followed by compound washout measured 30 mins post arachidonic acid challenge by radioimmunoassay; format: cell-based; settings: THP-1
[3] = target: COX-1/COX-2 (Homo sapiens) (UniProt P35354+P23219); assay: Selectivity ratio of IC50 for COX-2 in human whole blood to COX-1 in human whole blood; format: tissue-based
[4] = target: T2, Prostaglandin G/H synthase 2 (Homo sapiens, UniProt P35354); assay: Inhibition of COX-2 in human whole blood assessed as inhibition of LPS-induced plasma PGE2 level by radioimmunoassay
T2 sequence (P35354 whole entry): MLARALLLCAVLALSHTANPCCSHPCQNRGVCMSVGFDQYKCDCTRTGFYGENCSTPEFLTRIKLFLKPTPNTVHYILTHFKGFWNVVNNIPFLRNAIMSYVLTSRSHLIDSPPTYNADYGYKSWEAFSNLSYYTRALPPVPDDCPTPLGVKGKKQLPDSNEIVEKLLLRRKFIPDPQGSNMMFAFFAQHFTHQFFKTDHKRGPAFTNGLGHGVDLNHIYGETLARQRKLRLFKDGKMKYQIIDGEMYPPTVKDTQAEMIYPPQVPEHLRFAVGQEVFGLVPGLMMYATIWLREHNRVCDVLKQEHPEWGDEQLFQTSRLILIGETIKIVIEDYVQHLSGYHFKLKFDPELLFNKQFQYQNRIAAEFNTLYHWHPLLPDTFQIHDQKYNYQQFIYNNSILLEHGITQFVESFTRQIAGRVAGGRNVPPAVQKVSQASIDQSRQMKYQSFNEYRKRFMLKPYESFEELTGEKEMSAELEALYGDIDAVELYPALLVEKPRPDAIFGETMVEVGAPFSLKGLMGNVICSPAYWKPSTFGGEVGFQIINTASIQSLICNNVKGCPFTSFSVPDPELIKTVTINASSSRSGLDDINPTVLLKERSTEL

[5] = target: T1, Prostaglandin G/H synthase 1; assay: Inhibition of COX-1 in human whole blood assessed as inhibition of serum TXB2 level after 1 hr by radioimmunoassay
[6] = target: T1, Prostaglandin G/H synthase 1; assay: Inhibition of COX-1 in human washed platelet assessed as rightward shift in 10 uM arachidonic acid-induced TXB2 formation at 0.01 to 100 uM incubated for 25 mins prior to arachidonic acid challenge measured after 30 mins by radioimmunoassay
[7] = target: T1, Prostaglandin G/H synthase 1; assay: Inhibition of COX-1 (unknown origin) in platelet rich plasma assessed as inhibition of collagen-induced platelet aggregation at 30 uM incubated for 5 mins prior to collagen challenge measured for 5 mins by aggregometric analysis relative to vehicle-treated control
[8] = target: T1, Prostaglandin G/H synthase 1; assay: Inhibition of COX-1 (unknown origin) in platelet rich plasma assessed as inhibition of arachidonic acid-induced platelet aggregation at 30 uM incubated for 5 mins prior to arachidonic acid challenge measured for 5 mins by aggregometric analysis relative to vehicle-treated control
[9] = target: Prostaglandin G/H synthase 2 (Homo sapiens) (UniProt P35354); assay: Inhibition of COX-2 in human MDA-MB-231 cells assessed as inhibition of arachidonic acid-induced PGE2 formation at 100 uM incubated for 30 mins prior to arachidonic acid challenge measured after 30 mins by radioimmunoassay relative to vehicle-treated control
[10] = target: T3, Prostaglandin G/H synthase 2 (Homo sapiens) (UniProt P35354); assay: Inhibition of COX-2 in human whole blood assessed as inhibition of LPS-induced plasma PGE2 level at 1000 uM by radioimmunoassay relative to control
T3 sequence (whole entry): T2 sequence (P35354 whole entry)

[11] = target: T1, Prostaglandin G/H synthase 1; assay: Inhibition of COX-1 (unknown origin) in platelet rich plasma assessed as inhibition of collagen-induced TXB2 formation incubated for 5 mins prior to collagen challenge measured for 5 mins by aggregometric analysis
[12] = target: T1, Prostaglandin G/H synthase 1; settings: at 0.01 to 100 µM
[13] = target: T1, Prostaglandin G/H synthase 1; assay: Inhibition of COX-1 (unknown origin) in platelet rich plasma assessed as inhibition of arachidonic acid-induced TXB2 formation incubated for 5 mins prior to arachidonic acid challenge measured for 5 mins by aggregometric analysis
Mus musculus [14] = assay: Antithrombotic activity in C57BL/6 mouse assessed as reduction of 11-dehydro-TXB2 level in urine at 20 mg/kg, po administered 3 days measured for 24 hrs post third dose relative to vehicle-treated control; format: functional; parameters: scale not given: the % may be the effect or the level left
[15] = target: T1, Prostaglandin G/H synthase 1; assay: Inhibition of COX-1 (unknown origin) in platelet rich plasma assessed as inhibition of collagen-induced platelet aggregation incubated for 5 mins prior to collagen challenge measured for 5 mins by aggregometric analysis
[16] = Binding affinity to human alpha1-acid glycoprotein by HPLC analysis relative to control; format: ADME; settings: pooled result: one value given for 2 cell lines, strains, targets or settings
[17] = target: T1, Prostaglandin G/H synthase 1; assay: Inhibition of COX-1 (unknown origin) in platelet rich plasma assessed as inhibition of collagen-induced platelet aggregation up to 3 uM incubated for 5 mins prior to collagen challenge measured for 5 mins by aggregometric analysis
[18] = target: T1, Prostaglandin G/H synthase 1; assay: Inhibition of COX-1 (unknown origin) in platelet rich plasma assessed as inhibition of arachidonic acid-induced platelet aggregation at 10 uM incubated for 5 mins prior to arachidonic acid challenge measured for 5 mins by aggregometric analysis relative to vehicle-treated control
[19] = target: T1, Prostaglandin G/H synthase 1; assay: Inhibition of COX-1 (unknown origin) in platelet rich plasma assessed as inhibition of collagen-induced platelet aggregation at 10 uM incubated for 5 mins prior to collagen challenge measured for 5 mins by aggregometric analysis relative to vehicle-treated control
[20] = target: T1, Prostaglandin G/H synthase 1; assay: Inhibition of COX-1 in human washed platelet assessed as inhibition of 10 uM arachidonic acid-induced TXB2 formation at 0.01 to 100 uM incubated for 25 mins prior to arachidonic acid challenge measured after 30 mins by radioimmunoassay
[21] = target: T1, Prostaglandin G/H synthase 1; assay: Irreversible inhibition of COX-1 in human THP1 cells assessed as inhibition of arachidonic acid-induced TXB2 formation at 100 uM incubated for 30 mins followed by compound washout measured 30 mins post arachidonic acid challenge by radioimmunoassay; format: cell-based; settings: THP-1
[22] = target: Prostaglandin G/H synthase 2 (Homo sapiens) (UniProt P35354); assay: Reversible inhibition of COX-2 in human MDA-MB-231 cells assessed as inhibition of arachidonic acid-induced PGE2 formation at 100 uM incubated for 30 mins followed by compound washout measured 30 mins post arachidonic acid challenge by radioimmunoassay
Mus musculus [23] = assay: Antithrombotic activity in C57BL/6 mouse assessed as reduction of 6-keto-PGF1alpha level in urine at 20 mg/kg, po administered 3 days measured for 24 hrs post third dose; format: functional, organism-based; parameters: dose 20 mg/kg
[24] = target: T1, Prostaglandin G/H synthase 1; assay: Inhibition of COX-1 (unknown origin) in platelet rich plasma assessed as inhibition of arachidonic acid-induced platelet aggregation up to 3 uM incubated for 5 mins prior to arachidonic acid challenge measured for 5 mins by aggregometric analysis
Homo sapiens = assay: Antithrombotic activity in human assessed as reduction of 11-dehydro-TXB2 level in urine at 100 mg/day administered 6 days measured for 24 hrs post last dose relative to vehicle-treated control; format: functional; parameters: scale not given: the % may be the effect or the level left
Mus musculus [25] = organism: Mus musculus; assay: Antithrombotic activity in LDLR-/- C57BL/6 mouse assessed as reduction of 11-dehydro-TXB2 level in urine at 30 mg/L after 18 weeks relative to vehicle-treated control; format: functional; parameters: scale not given: the % may be the effect or the level left
[26] = target: Prostaglandin G/H synthase 2 (Homo sapiens) (UniProt P35354); assay: Irreversible inhibition of COX-2 in human MDA-MB-231 cells assessed as inhibition of arachidonic acid-induced PGE2 formation at 100 uM incubated for 30 mins followed by compound washout measured 30 mins post arachidonic acid challenge by radioimmunoassay

Chain of COX-1/COX-2 (Homo sapiens) (P23219 whole entry, looked up, one chain of several): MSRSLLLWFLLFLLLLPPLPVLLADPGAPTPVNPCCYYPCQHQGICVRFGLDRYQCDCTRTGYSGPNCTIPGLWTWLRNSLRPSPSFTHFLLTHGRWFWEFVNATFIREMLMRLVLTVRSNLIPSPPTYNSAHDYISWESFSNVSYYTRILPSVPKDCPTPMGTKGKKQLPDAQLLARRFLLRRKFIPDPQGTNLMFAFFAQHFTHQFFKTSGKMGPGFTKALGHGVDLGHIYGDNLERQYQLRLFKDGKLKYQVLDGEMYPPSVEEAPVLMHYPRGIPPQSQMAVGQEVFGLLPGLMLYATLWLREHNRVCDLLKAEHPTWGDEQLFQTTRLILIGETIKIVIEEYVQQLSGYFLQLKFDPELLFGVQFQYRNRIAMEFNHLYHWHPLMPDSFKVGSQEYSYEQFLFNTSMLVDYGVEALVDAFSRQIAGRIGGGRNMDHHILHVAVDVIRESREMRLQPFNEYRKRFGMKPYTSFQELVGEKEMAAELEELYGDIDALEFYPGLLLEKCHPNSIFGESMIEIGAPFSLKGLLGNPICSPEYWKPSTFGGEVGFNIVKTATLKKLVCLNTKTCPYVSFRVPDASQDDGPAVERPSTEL
T1 sequence (P23219 whole entry): as the sequence (P23219 whole entry, looked up, one chain of several) above

SMILES: CC(C)Cc1ccc(C(C)C(=O)O)cc1 (stereo unspecified)
- inhibition [1]: > 90%
- inhibition [2]: Active

SMILES: Cc1onc(-c2ccco2)c1-c1ccccc1
- Ratio IC50 [3]: 9.29
- IC50 [4]: 20.4 µM
- IC50 [5]: 2.2 µM

SMILES: CC(=O)/C(=C(\N)c1ccco1)c1ccccc1
- Ratio IC50 [3]: > 2.7
- IC50 [4]: > 100 µM
- IC50 [5]: 37 µM

SMILES: OCc1onc(-c2ccc(Cl)o2)c1-c1ccccc1
- Ratio IC50 [3]: > 23.8
- IC50 [4]: > 100 µM

SMILES: COC(=O)c1c(-c2ccccc2)noc1-c1ccccc1
- Ratio IC50 [3]: > 5.79
- IC50 [4]: > 100 µM
- IC50 [5]: 17.3 µM

SMILES: CC(=O)OCc1onc(-c2ccc(Cl)o2)c1-c1ccccc1
- Ratio IC50 [3]: > 20
- inhibition [1]: > 90%
- inhibition [6]: Active
- inhibition [7]: 62%
- inhibition [2]: Active
- inhibition [8]: 97%
- inhibition [9]: inactive
- IC50 [5]: 5 µM
- inhibition [10]: 40%
- IC50 [11]: 23 µM
- inhibition [12]: Active
- IC50 [13]: 20 µM

SMILES: Cc1onc(-c2cccc(Cl)c2)c1-c1ccccc1
- Ratio IC50 [3]: 0.21
- IC50 [4]: 0.27 µM
- IC50 [5]: 1.3 µM

SMILES: Cc1onc(-c2ccc(Cl)o2)c1-c1ccccc1F
- Ratio IC50 [3]: > 52.6

SMILES: Cc1onc(-c2ccc(Cl)o2)c1-c1ccc(F)cc1
- Ratio IC50 [3]: 9.05
- IC50 [4]: 17.2 µM

SMILES: FC(F)(F)c1onc(-c2ccc(Cl)o2)c1-c1ccccc1
- Ratio IC50 [3]: > 123
- Activity (Mus musculus [14]): 70%
- inhibition [15]: Dose-dependent effect
- inhibition [1]: > 90%
- Activity [16]: 94.3%
- inhibition [17]: inactive
- inhibition [18]: 99.2%
- inhibition [19]: 72%
- inhibition [20]: Active
- inhibition [21]: Active
- inhibition [22]: Active
- inhibition [9]: 70%
- Activity (Mus musculus [23]): inactive
- inhibition [10]: 49%
- IC50 [11]: 10 µM
- inhibition [11]: Dose-dependent effect
- inhibition [24]: inactive
- inhibition [12]: Active
- IC50 [13]: 3.7 µM
- inhibition [13]: Dose-dependent effect

SMILES: O=C(O)c1c(-c2ccccc2)noc1-c1ccccc1
- IC50 [4]: > 100 µM
- IC50 [5]: > 100 µM

SMILES: CC(=O)Oc1ccccc1C(=O)O [ASPIRIN]
- inhibition [1]: > 90%
- Activity (Homo sapiens): 70%
- inhibition [20]: Active
- inhibition [21]: Active
- Activity (Mus musculus [25]): 70%
- inhibition [12]: Active

SMILES: Cc1ccc(-c2noc(C)c2-c2ccccc2)o1
- Ratio IC50 [3]: 213
- IC50 [4]: 68.2 µM
- inhibition [15]: Dose-dependent effect
- inhibition [1]: > 90%
- Activity [16]: 94.7%
- inhibition [17]: inactive
- inhibition [18]: 97.8%
- inhibition [19]: 66%
- inhibition [20]: Active
- inhibition [21]: Active
- inhibition [26]: Active
- inhibition [9]: 70%
- IC50 [5]: 0.32 µM
- IC50 [11]: 7.4 µM
- inhibition [11]: Dose-dependent effect
- inhibition [24]: inactive
- inhibition [12]: Active
- IC50 [13]: 4.3 µM
- inhibition [13]: Dose-dependent effect

SMILES: Cc1onc(C2CCCO2)c1-c1ccccc1 (stereo unspecified)
- IC50 [4]: > 100 µM
- IC50 [5]: > 100 µM

SMILES: Cc1onc(-c2ccc(Br)o2)c1-c1ccccc1
- Ratio IC50 [3]: 103
- IC50 [4]: 34 µM
- inhibition [15]: Dose-dependent effect
- inhibition [1]: > 90%
- Activity [16]: 96.1%
- inhibition [17]: inactive
- inhibition [18]: 96.3%
- inhibition [19]: 78%
- inhibition [20]: Active
- inhibition [21]: Active
- inhibition [22]: Active
- inhibition [9]: 70%
- IC50 [5]: 0.33 µM
- IC50 [11]: 7.6 µM
- inhibition [11]: Dose-dependent effect
- inhibition [24]: inactive
- inhibition [12]: Active
- IC50 [13]: 3.4 µM
- inhibition [13]: Dose-dependent effect

SMILES: Cc1onc(-c2ccc(Cl)o2)c1-c1ccccc1
- Activity [16]: 95.7%
- IC50 [11]: 18.6 µM
- IC50 [13]: 12 µM

SMILES: O=C(OCCCO[N+](=O)[O-])c1onc(-c2ccc(Cl)o2)c1-c1ccccc1
- IC50 [4]: > 100 µM
- IC50 [5]: > 100 µM

SMILES: O=C(O)c1c(-c2ccc(Cl)o2)noc1-c1ccccc1
- IC50 [4]: > 100 µM
- IC50 [5]: > 100 µM

SMILES: COC(=O)c1onc(-c2ccc(Cl)o2)c1-c1ccccc1
- Ratio IC50 [3]: > 5.21
- IC50 [4]: > 100 µM
- IC50 [5]: 19.2 µM

SMILES: COC(=O)c1c(-c2ccc(Cl)o2)noc1-c1ccccc1
- Ratio IC50 [3]: > 5.75
- IC50 [4]: > 100 µM
- IC50 [5]: 17.4 µM

SMILES: O=C(O)c1onc(-c2ccc(Cl)o2)c1-c1ccccc1
- IC50 [4]: > 100 µM
- IC50 [5]: > 100 µM

SMILES: Cc1onc(-c2ccccc2Cl)c1-c1ccccc1
- Ratio IC50 [3]: 4.07
- IC50 [4]: 1.1 µM
- IC50 [5]: 0.27 µM

SMILES: O=C(OCCCN1CCOCC1)c1onc(-c2ccc(Cl)o2)c1-c1ccccc1
- IC50 [4]: > 100 µM
- IC50 [5]: > 100 µM

SMILES: CC(=O)/C(=C(\N)c1ccc(Cl)o1)c1ccccc1
- IC50 [4]: > 100 µM
- IC50 [5]: > 100 µM

Source: ChEMBL document CHEMBL2380195 (J Med Chem, 2013)
